US4347361A, “4,5α-Epoxy-3-hydroxy or methoxy-7-(1-hydroxy-alkyl or 1-oxoalkyl)morphinan-6-one compounds” (SISA, Incorporated, priority 1980, dated 1982)

Columns and labels:
[1] = system: male CD-1 mice (acetic acid writhing); assay: acetic acid mouse writhing test (analgesic effects); type: in vivo, mice (male CD-1); details: subcutaneous; for ED50: sc, 0.25 h, acetic acid i.p. 15 min post drug, read-out: ED50 (dose required to reduce the number of writhes by 50%); for ED50: Ia at dose: at 10 (mg/kg), Ia not defined; for % reduction of number of writhes (ED50 column, X%(Y)): at 10 mg/kg
Method: (A) Analgesic effects upon mice (acetic acid writhing test).
The analgesic effects of test compounds were determined in mice by use of the acetic acid writhing test described by B. A. Whittle, Brit. J. Pharmacol., 22:246 (1964). In this test at least three groups of five male CD-1 mice each were given subcutaneous doses of the test drug dissolved in either distilled water or distilled water acidified with HCl depending on the solubility of the compound. Fifteen (15) minutes post drug, 0.4 milliliter of a 0.75% or 1.0% or 0.6 milliliter of a 1.0% V/V acetic acid in distilled water solution was administered intraperitoneally. The number of writhes in a 20 minute interval beginning 5 minutes after the acetic acid injection were determined and compared with the number of writhes in control groups which had received only acetic acid.
Percent inhibition of writhing was calculated as: [formula]
The ED50 dose, i.e., the dose required to reduce the number of writhes by 50%, was determined graphically from a plot of % inhibition as a probit versus log dose. Confidence limits of 95% were calculated on the basis of those results falling in the range 16-84% inhibition. See Litchfield, J. T. and Wilcoxon, F., J. Pharmacol. Exp. Ther., 96:99, (1949).

[2] = system: male albino Wistar rats (morphine effect, tail flick); assay: narcotic antagonist activity, modified rat tail flick test (inhibition of morphine effect); type: in vivo; details: intraperitoneal; for AD50: Ia at dose: at 10 (mg/kg), Ia not defined; for AD50: Ia at dose / AD50: X%(Y): vs ED80 morphine; for ED50: ip, 10 min before ED80 dose of morphine s.c., read-out: AD50 (dose required to inhibit the morphine effect by 50%)
Method: (B) Narcotic antagonist activity in rats (modified rat tail flick test).
The narcotic antagonist effects of test compounds were determined by a modification of the rat tail flick procedure of Harris and Pierson, J. Pharmacol. Exp. Ther. 143:141 (1964).
Male albino Wistar rats (100-120 g.) were used for this study. A rat's tail is so placed so as to cover a photocell. Heat is applied by a lamp in a reflector with a timer being connected to the lamp and photocell so that the timer goes on when the light is turned on and is turned off when the photocell is uncovered. A rheostat, incorporated into a heating lamp is used to adjust the intensity of the light falling on the tail of the rat such that the rat's control reaction time is from 1.2 to 5.8 seconds. Animals with a control reaction time outside this range are rejected. The rheostat adjustment is made only if a significant proportion (more than 1 out of every 10 rats) of the reaction times are outside the range of 1.2 to 5.8 seconds. Groups of five rats were used each time, and two control times were determined at least 30 minutes apart.
The test drug was given intraperitoneally and this was followed ten minutes later by an ED80 dose of morphine subcutaneously. The animals were retested at 20 minutes after the morphine injection. Control animals were given morphine only. […] The data were calculated as follows: [formula]
The data were plotted on log-probit paper and AD50 values, i.e., the dose required to inhibit the morphine effect by 50% within 95% confidence limits, were determined by the method of Litchfield and Wilcoxon.

Compound	ED50 [1] [mg/kg]	ED50 [2] [mg/kg]	further results
CCCCCC(=O)C1C[C@H]2[C@H]3Cc4ccc(OC)c5c4[C@@]2(CCN3C)[C@@H](O5)C1=O (stereo partly drawn) [MLS-5682]	4		
COc1ccc2c3c1O[C@H]1C(=O)C(C(=O)CCCc4ccccc4)C[C@H]4[C@@H](C2)N(C)CC[C@]314 (stereo partly drawn) [MLS-5683, 7-(4-Phenylbutyroyl)Dihydrocodeinone]	0.41		
COc1ccc2c3c1O[C@H]1C(=O)C(C(=O)CCc4ccccc4)C[C@H]4[C@@H](C2)N(C)CC[C@]314 (stereo partly drawn) [MLS-5688H]	0.62		
CCCCCC(=O)C1C[C@H]2[C@H]3Cc4ccc(O)c5c4[C@@]2(CCN3C)[C@@H](O5)C1=O (stereo partly drawn) [MLS-5689]	0.76		
CN1CC[C@]23c4c5ccc(O)c4O[C@H]2C(=O)C(C(=O)CCc2ccccc2)C[C@H]3[C@H]1C5 (stereo partly drawn) [MLS-5690]	0.105		
CN1CC[C@]23c4c5ccc(O)c4O[C@H]2C(=O)C(C(=O)CCCc2ccccc2)C[C@H]3[C@H]1C5 (stereo partly drawn) [MLS-5691, 7-(4-Phenylbutyroyl)Dihydromorphone]	0.0052		
CCCC(=O)C1C[C@H]2[C@H]3Cc4ccc(OC)c5c4[C@@]2(CCN3C)[C@@H](O5)C1=O (stereo partly drawn) [MLS-5692]			ED50: Ia at dose [1]: Ia
CCCCCC(C)(O)C1C[C@H]2[C@H]3Cc4ccc(O)c5c4[C@@]2(CCN3C)[C@@H](O5)C1=O (stereo partly drawn) [MLS-5694]	2.9		
CCCC(=O)C1C[C@H]2[C@H]3Cc4ccc(O)c5c4[C@@]2(CCN3C)[C@@H](O5)C1=O (stereo partly drawn) [MLS-5695]	5.25		
COc1ccc2c3c1O[C@H]1C(=O)C(C(C)=O)C[C@H]4[C@@H](C2)N(CC2CC2)CC[C@]314 (stereo partly drawn) [TR-5463]			% reduction of number of writhes (ED50 column, X%(Y)) [1]: 9%; AD50: Ia at dose [2]: Ia
CCCC(=O)C1C[C@H]2[C@H]3Cc4ccc(OC)c5c4[C@@]2(CCN3CC2CC2)[C@@H](O5)C1=O (stereo partly drawn) [TR-5464]	2.81	8.1	
CC(=O)C1C[C@H]2[C@H]3Cc4ccc(O)c5c4[C@@]2(CCN3CC2CC2)[C@@H](O5)C1=O (stereo partly drawn) [TR-5475]	4.05	1.3	
CCCC(=O)C1C[C@H]2[C@H]3Cc4ccc(O)c5c4[C@@]2(CCN3CC2CC2)[C@@H](O5)C1=O (stereo partly drawn) [TR-5476, 17-cyclopropylmethyl-4,5α-epoxy-3-hydroxy-7-butanoylmorphinan-6-one]	4.65	2.55	
COc1ccc2c3c1O[C@H]1C(=O)C(C(C)(C)O)C[C@H]4[C@@H](C2)N(CC2CC2)CC[C@]314 (stereo partly drawn) [TR-5479]			ED50: Ia at dose [1]: Ia; AD50: X%(Y) ([2]; at 10 mg/kg): 41%
COc1ccc2c3c1O[C@H]1C(=O)C(C(C)(C)O)C[C@H]4[C@@H](C2)N(C)CC[C@]314 (stereo partly drawn) [TR-5492]	4.5		
CCCC(C)(O)C1C[C@H]2[C@H]3Cc4ccc(OC)c5c4[C@@]2(CCN3CC2CC2)[C@@H](O5)C1=O (stereo partly drawn) [TR-5499]	0.42		AD50: X%(Y) ([2]; at 7 mg/kg): 12%
COc1ccc2c3c1O[C@H]1C(=O)C(C(=O)c4ccccc4)C[C@H]4[C@@H](C2)N(CC2CC2)CC[C@]314 (stereo partly drawn) [TR-5501]	11.3	8	
CCCCCC(=O)C1C[C@H]2[C@H]3Cc4ccc(OC)c5c4[C@@]2(CCN3CC2CC2)[C@@H](O5)C1=O (stereo partly drawn) [TR-5504]	5.7		AD50: Ia at dose [2]: Ia
CCCCCC(=O)C1C[C@H]2[C@H]3Cc4ccc(O)c5c4[C@@]2(CCN3CC2CC2)[C@@H](O5)C1=O (stereo partly drawn) [TR-5505]	0.29	22	

Compound	ED50 [1] [mg/kg]	ED50 [2] [mg/kg]	further results
O=C(c1ccccc1)C1C[C@H]2[C@H]3Cc4ccc(O)c5c4[C@@]2(CCN3CC2CC2)[C@@H](O5)C1=O (stereo partly drawn) [TR-5506]	4.35	0.24	
COc1ccc2c3c1O[C@H]1C(=O)C(C(=O)C(C)C)C[C@H]4[C@@H](C2)N(CC2CC2)CC[C@]314 (stereo partly drawn) [TR-5509]	7.5	2.8	
CC(C)C(=O)C1C[C@H]2[C@H]3Cc4ccc(O)c5c4[C@@]2(CCN3CC2CC2)[C@@H](O5)C1=O (stereo partly drawn) [TR-5511]	> 10	0.81	
CCCCC(=O)C1C[C@H]2[C@H]3Cc4ccc(OC)c5c4[C@@]2(CCN3CC2CC2)[C@@H](O5)C1=O (stereo partly drawn) [TR-5519]	> 10		AD50: Ia at dose [2]: Ia
CCCCC(=O)C1C[C@H]2[C@H]3Cc4ccc(O)c5c4[C@@]2(CCN3CC2CC2)[C@@H](O5)C1=O (stereo partly drawn) [TR-5520]	1.59		AD50: X%(Y) ([2]; at 10 mg/kg): 77%
CCCCCC(C)(O)C1C[C@H]2[C@H]3Cc4ccc(O)c5c4[C@@]2(CCN3CC2CC2)[C@@H](O5)C1=O (stereo partly drawn) [TR-5538]	0.28	6.6	
CCCCCCC(=O)C1C[C@H]2[C@H]3Cc4ccc(OC)c5c4[C@@]2(CCN3CC2CC2)[C@@H](O5)C1=O (stereo partly drawn) [TR-5539]	> 10	> 10	
CCCCCCC(=O)C1C[C@H]2[C@H]3Cc4ccc(O)c5c4[C@@]2(CCN3CC2CC2)[C@@H](O5)C1=O (stereo partly drawn) [TR-5540]	0.4		AD50: Ia at dose [2]: Ia
CCCC(C)(O)C1C[C@H]2[C@H]3Cc4ccc(O)c5c4[C@@]2(CCN3CC2CC2)[C@@H](O5)C1=O (stereo partly drawn) [TR-5543, 17-cyclopropylmethyl-4,5α-epoxy-3-hydroxy-7-(1-hydroxy-1-methylbutyl)morphinan-6-one]	1.8	2.8	
CCCCC(C)(O)C1C[C@H]2[C@H]3Cc4ccc(OC)c5c4[C@@]2(CCN3CC2CC2)[C@@H](O5)C1=O (stereo partly drawn) [TR-5544]			% reduction of number of writhes (ED50 column, X%(Y)) [1]: 10%; AD50: Ia at dose [2]: Ia
CCCCC(C)(O)C1C[C@H]2[C@H]3Cc4ccc(O)c5c4[C@@]2(CCN3CC2CC2)[C@@H](O5)C1=O (stereo partly drawn) [TR-5551]		2.5	% reduction of number of writhes (ED50 column, X%(Y)) [1]: 40%
CCC(=O)C1C[C@H]2[C@H]3Cc4ccc(OC)c5c4[C@@]2(CCN3CC2CC2)[C@@H](O5)C1=O (stereo partly drawn) [TR-5570]		6.5	% reduction of number of writhes (ED50 column, X%(Y)) [1]: 11%
COc1ccc2c3c1O[C@H]1C(=O)C(C(=O)C(C)(C)C)C[C@H]4[C@@H](C2)N(CC2CC2)CC[C@]314 (stereo partly drawn) [TR-5571]			ED50: Ia at dose [1]: Ia; AD50: X%(Y) ([2]; at 10 mg/kg): 13%
CC(C)C(C)(O)C1C[C@H]2[C@H]3Cc4ccc(O)c5c4[C@@]2(CCN3CC2CC2)[C@@H](O5)C1=O (stereo partly drawn) [TR-5572]	7.8	2.2	
CCC(=O)C1C[C@H]2[C@H]3Cc4ccc(O)c5c4[C@@]2(CCN3CC2CC2)[C@@H](O5)C1=O (stereo partly drawn) [TR-5573]		0.51	ED50: Ia at dose [1]: Ia
CC(C)(C)CC(=O)C1C[C@H]2[C@H]3Cc4ccc(O)c5c4[C@@]2(CCN3CC2CC2)[C@@H](O5)C1=O (stereo partly drawn) [TR-5574]		> 10	ED50: Ia at dose [1]: Ia
COc1ccc2c3c1O[C@H]1C(=O)C(C(=O)c4ccc(F)cc4)C[C@H]4[C@@H](C2)N(CC2CC2)CC[C@]314 (stereo partly drawn) [TR-5575]			ED50: Ia at dose [1]: Ia; AD50: X%(Y) ([2]; at 10 mg/kg): 17%
COc1ccc2c3c1O[C@H]1C(=O)C(C(=O)Cc4ccccc4)C[C@H]4[C@@H](C2)N(CC2CC2)CC[C@]314 (stereo partly drawn) [TR-5577]			% reduction of number of writhes (ED50 column, X%(Y)) [1]: 21%; AD50: Ia at dose [2]: Ia
O=C(c1ccc(F)cc1)C1C[C@H]2[C@H]3Cc4ccc(O)c5c4[C@@]2(CCN3CC2CC2)[C@@H](O5)C1=O (stereo partly drawn) [TR-5579]			% reduction of number of writhes (ED50 column, X%(Y)) [1]: 29%; AD50: X%(Y) ([2]; at 10 mg/kg): 45%
